Entries after “also recorded” stand apart in the source; their conditions may differ.
How the values were obtained:
[1] = tested on: ALD cells (cALD and AMN cells); assay: Basal energy production measured as ATP content in ALD cells; assay type: cell-based, human
Description: (§1) In vitro and in vivo experiments were done to evaluate the ability of nervonic acid to modulate ALD associated biochemistry in various ALD phenotypes including childhood cerebral ALD (cALD) and adrenomyeloneuropathy (AMN). Nervonic acid (NA) was compared to the erucic acid (EA), the active ingredient in Lorenzo's oil. […] Additionally, the potential of NA and EA to alter the basal energy production measured as ATP content in ALD cells was assessed (Terluk et al., Neurotherapeutics 2022 April; 19(3):1007-1017. doi: 10.1007/s13311-022-01226-7). Following a five-day treatment with NA, cellular ATP content was increased in cALD cells (FIG. 6).

ALD double knockout mice = assay: In vivo mouse study, four-week NA or EA diet, fatty acids in plasma and tissues; conditions: for C26:0 in tissues, 3% NA group versus 3% EA group: comparison of 3% NA and 3% EA treatment groups
Description: An in vivo ALD double knockout mice model was used to evaluate the effect of NA or EA on various fatty acid concentrations in the tissue of the mice see Example). Mice were fed a diet containing 0.6% NA, 3% NA, or 3% EA for four weeks (FIG. 20). Blood samples taken every week and tissues harvested after four weeks of treatment were analyzed for fatty acid concentration.
Double ALD knockout mice were grown to eight weeks. At eight week the mice were split into four treatment groups. Three of the treatment groups received nervonic acid (NA, 0.6% or 3%) or erucic acid (EA, 3%) through their daily diet. Specifically, mice were fed with rodent chow (TEKLAD Rodent Chow available from Inotiv in West Lafayette, IN) mixed with the desired amount of NA or EA. Food was available continuously and new food was added every other day. Daily food intake was weighed and mouse weighed every week. Blood samples were taken weekly for four weeks. Following four weeks, the mice were sacrificed, and their tissues analyzed for fatty acid content. GCMS was used for lipid fatty acid content analysis and LC-MS/MS was used to analyze Lyso-PC.

[2] = preliminary animal studies; cited from earlier work
AMN and cALD cells = assay: Fatty acid levels in ALD cells treated with NA or EA; assay type: cell-based, human; conditions: 0, 5, 20, 50 μM
Description: as §1

[3] = tested on: Human dermal AMN fibroblasts (GM17819); assay: Imaging study of oxidative stress (CELLROX, MITOSOX); assay type: cell-based; conditions: five days, compared to vehicle and control
Description: A second set of in vitro experiments were conducted to more thoroughly understand the mechanism of action of nervonic acid in the mitochondria of ALD cells. AMN patient derived fibroblasts were treated with various concentrations of NA (5 μM, 20 μM, and 50 μM in ethanol) and evaluated for mitochondrial oxidative stress by evaluating reactive oxygen species (see Example) and mitochondrial respiration (see Example). FIG. 9 and FIG. 11 show images of the NA AMN treated cells stained for reactive oxygen species (green) or mitochondrial superoxide (red) and nuclei (blue; see Imaging Study in Example). FIG. 10 and FIG. 12 show bar graphs quantifying the reactive oxygen species fluorescence of FIG. 9 and the mitochondrial superoxide fluorescence of FIG. 11.
Human dermal fibroblasts (GM17819) were seeded on chamber slides with a density of 12,500 cells per well and incubated at 37° C. At ˜80% confluence, cells were treated with ethanol (vehicle, <0.1%) and NA (5 μM, 20 μM, or 50 μM) for five days. Untreated AMN fibroblasts were considered the control group. […] Cell localization and fluorescence visualization were then completed using a fluorescence microscope (BZ-X810; Keyence, Osaka, Japan). […]

AMN cells (GM17819) = assay: Seahorse cell mitochondrial stress test (MST), oxygen consumption rate; assay type: cell-based, human; conditions: 5, 20, 50 μM NA, 24 hours
Description: Mitochondrial function was assessed using a cell mitochondrial stress test (MST; see Seahorse study in the Example). As depicted in FIG. 8, in this experiment, inhibitors of various electron transport chain components (oligomycin; FCCP/carbonyl cyanide 4-(trifluoromethoxy)phenylhydrazone; rotenone and antimycin A) are sequentially incubated with cells and the oxygen consumption rate (OCR) measured following each incubation to evaluate various individual parameters of respiration. The OCR of cells that were treated with NA was compared with cells not treated with NA. FIG. 13A-13, FIG. 14A-B, FIG. 15A-B, and FIG. 16A-B are plots showing the results of the respiration test.
Mitochondrial function was assessed on AMN cells (GM17819) using the Cell Mito Stress Test (CMST) in an XFe96 Extracellular Flux Analyzer (Agilent Technologies, Inc., Santa Clara, CA). Cells (1.25×10^4 cells/well) were seeded overnight on Cell-Tak coated XFe96 microplate and then treated with NA (5 μM, 20 μM, or 50 μM) for 24 hours. For the CMST measurements, the culture medium was replaced with XF DMEM medium supplemented with glutamine 4 mM, sodium pyruvate 1 mM, and glucose 24.9 mM, pH 7.4 and 37° C. Oxygen consumption rate (OCR) was detected at baseline and after the following injections: 1) oligomycin (3 μM), 2) carbonyl cyanide 4-(trifluoromethoxy)phenylhydrazone/FCCP (2 μM), and 3) rotenone (1 μM) plus antimycin A (1 μM). This protocol allowed the analysis of the following parameters: basal respiration, ATP production, proton leak, maximal respiration, spare respiratory capacity, non-mito respiration, coupling efficiency percent, and spare respiratory capacity percent. OCR data were normalized by the number of cells determined by using CyQUANT NF Cell Proliferation Assay Kit (Thermo Fisher Scientific, Inc., Waltham, MA) and a fluorescence microplate reader. OCR results were generated by SEAHORSE WAVE PRO (Agilent Technologies, Inc., Santa Clara, CA) and analyzed with the SEAHORSE Analytics software (Agilent Technologies, Inc., Santa Clara, CA).

AMN cells = assay: Long chain fatty acid (LCFA) oxidation stress test with UK5099, BPTES, etomoxir; assay type: cell-based, human; conditions: 20 μM NA, 24 h, with inhibitors UK, BP, ETO alone or combined
Text: A long chain fatty acid (LCFA) oxidation stress test (SEAHORSE XF assay; Agilent Technologies, Inc., Santa Clara, CA) was used to assess how NA affects mitochondrial respiration when various metabolic pathways of mitochondria are inhibited. Specific inhibitors to block glucose, fatty acid or glutamine pathways were used alone or in combination to understand the substrate specific effects of NA. In this assay the mitochondrial stress test (MST) is repeated with one or more inhibitors of glycolysis, the TCA cycle, electron transport, and oxidative phosphorylation pathways are present. Etomoxir (Eto) is used to inhibit carnitine palmitoyl transferase 1a (CPT1a), an enzyme important in the mechanism for beta oxidation (degradation) of long chain fatty acids. UK5099 (UK) is used to inhibit transport of glucose and/or pyruvate by targeting the mitochondrial pyruvate carrier (MPC). BPTES (BP) is used to inhibit glutaminase GLS1, an enzyme that converts glutamine into glutamate, a substrate for further oxidation in the TCA cycle. AMN cells were incubated with one or more of the inhibitors with or without 20 μM NA and run through the mitochondrial stress test. The results are shown in FIG. 17, FIG. 18, and FIG. 19.

[4] = Pharmacokinetics of NA study, single oral dose; assay type: in vivo, mouse; conditions: male, ALD gene-knockout (ABCD1-), mouse, in vivo; single oral 10 mg; plasma; NCA
Description: (§2) Pharmacokinetic studies were conducted to determine the key pharmacokinetic parameters of NA in an ALD mouse model and assess alterations in plasma C26:0 levels following single-dose NA administration. The pharmacokinetic parameters of NA were defined for the first time in rodents (FIG. 35-39). […] The concentrations of NA in the brain (FIG. 37) and in the liver (FIG. 38) were determined.
(§3) Pharmacokinetic studies were conducted using 12-week-old male ALD gene-knockout mice (KO; ABCD1-) following a single oral administration of 10 mg of NA. Blood samples were collected from the submandibular vein prior to dosing and at 0.25, 0.5, 1, 2, 6, 18, 24, 30, 48, 72, and 168 hours post-administration. The concentrations of NA in plasma and tissues were analyzed at the Kennedy Krieger Institute using GC/MS. Pharmacokinetic parameters including systemic clearance (CL/F), volumes of distribution (V/F), elimination half-life (ti/2), and the area under the curve (AUC) were estimated using PHOENIX (Certara USA, Radnor, PA) with non-compartmental analysis (NCA).

[5] = tested on: ALD gene-knockout mice (KO; ABCD1-); assay: Pharmacokinetics of NA study, single oral dose; assay type: in vivo, mouse
Description: as §2, §3

[6] = cited from earlier work
ELOVL1 = target: T1, ELOVL1 (Homo sapiens, UniProt Q9BW60); conditions: earlier studies; cited from earlier work
T1 sequence (Q9BW60 1-279): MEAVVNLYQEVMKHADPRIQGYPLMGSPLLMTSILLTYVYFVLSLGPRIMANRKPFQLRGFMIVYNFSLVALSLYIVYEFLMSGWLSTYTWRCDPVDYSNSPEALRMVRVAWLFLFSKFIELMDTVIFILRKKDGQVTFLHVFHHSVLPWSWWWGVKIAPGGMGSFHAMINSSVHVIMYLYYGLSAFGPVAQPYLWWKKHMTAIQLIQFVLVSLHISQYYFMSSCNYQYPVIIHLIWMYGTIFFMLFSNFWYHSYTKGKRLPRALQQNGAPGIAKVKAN

[7] = tested on: ALD patient-derived fibroblasts; conditions: earlier studies; cited from earlier work

CCCCCCCC/C=C\CCCCCCCCCCCC(=O)O [EA, erucic acid, reference compound]
cellular ATP content (energy production) at 20 μM ([1]; 20 μM, compared to vehicle-treated cells, five-day treatment): did not show a marked increase
C22:1 amount in brain (ALD double knockout mice; 3% EA diet, four weeks): did not show an elevation
C22:1 (EA) levels in liver, kidney, heart, and adrenal (ALD double knockout mice; compared to control group, 3% EA diet, four weeks): significant elevation
C26:0 in tissues, 3% NA group versus 3% EA group (ALD double knockout mice): no significant difference; also recorded: comparable
C22:1 (EA) level in plasma (ALD double knockout mice; only after 4-week treatment with 3% EA): significant increase
cardiotoxicity [2]: associated with cardiotoxicity

CCCCCCCC/C=C\CCCCCCCCCCCCCC(=O)O [NA, Nervonic acid]
amount of C26:0 fatty acid (AMN and cALD cells): dose-dependent effect on decreasing
cellular ATP content ([1]; cALD cells, five-day treatment): increased
cellular ATP content at other concentrations ([1]; concentrations other than 20 μM, cALD and AMN cells): a trend was observed
mitochondrial superoxide (MITOSOX fluorescence) ([3]; 5 μM or 20 μM): decrease
reactive oxygen species (CELLROX fluorescence) ([3]; 5 μM, 20 μM, or 50 μM): decrease
ATP production (AMN cells (GM17819)): increase
basal respiration (AMN cells (GM17819)): increase
maximal respiration (AMN cells (GM17819)): increase
spare respiratory capacity (AMN cells (GM17819)): increase
acute response (AMN cells): No significant change
basal respiration (AMN cells): No significant change
maximal respiration (AMN cells): No significant change
plasma C26:0 Lyso-phosphatidylcholine (C26:0 LPC) (ALD double knockout mice; after 4-week treatment, dose-dependent manner): significantly reduced
C24:1 levels in liver, kidney, heart, and adrenal gland (ALD double knockout mice; compared to control group, NA diet, four weeks): significant elevation
C26:0 in tissues, 3% NA group versus 3% EA group (ALD double knockout mice): no significant difference; also recorded: comparable
plasma C26:0 (ALD double knockout mice; diet 0.6% or 3% NA): dose dependent decrease
NA level in plasma at steady state (ALD double knockout mice; following four-week treatment): approximately 70 pig/mL
C26:1 levels in plasma (ALD double knockout mice; intake of NA): significant increase
C26:0 levels in tissues (ALD double knockout mice; liver, kidney, brain, heart, adrenal, four weeks): decrease
AUC [4]: 2330 µg·h/mL
Cmax [4]: 32.7 µg/mL
Tmax [4]: 2 h
half-life [4]: 62.3 h
CL/F ([5]; single oral 10 mg, plasma, NCA): 8.509 mL/h
Ke ([5]; single oral 10 mg, plasma, NCA): 0.01113 h⁻¹
V/F ([5]; single oral 10 mg, plasma, NCA): 764.7 mL
plasma C26:0 LPC ([5]; single oral dose 10 mg NA): does not significantly affect
plasma C26:0 levels ([5]; single oral dose 10 mg NA): does not significantly affect
solubility in dimethyl sulfoxide ([6]; dimethyl sulfoxide): approximately 20 mg/ml
solubility in dimethylformamide ([6]; dimethylformamide): approximately 20 mg/ml
solubility in ethanol ([6]; ethanol): approximately 10 mg/ml
inhibition of ELOVL1 (ELOVL1): competitively inhibit
accumulation of C26:0 [7]: biochemically reverse

— patent US20250009698A1, “NERVONIC ACID-BASED COMPOSITIONS AND METHODS” (REGENTS OF THE UNIVERSITY OF MINNESOTA, priority 2023, published 2025)
